Test results as given in patent publication EP4656640A1, “IRAK4 DEGRADER AND USE THEREOF” (Shanghai Qilu Pharmaceutical Research and Development …, priority 2023, dated 2024).
Like-named read-outs stand apart in the source and are kept apart here.

Columns and labels:
[1] = system: TNFα secretion; test: Inhibition of induced TNFα secretion in human PBMCs (CBA); type: cell-based; settings: PBMC
Procedure: The effect of PROTAC small molecules on inflammatory factors in PBMCs downstream of IRAK4 induced by TLR and IL-1 was detected based on the CBA (cytometric bead array) method.
Step 2: The density of PBMCs was adjusted to 1 E6/mL, and 150 µL of PBMCs in 1640 complete medium were seeded into a 96-well plate, followed by incubation at 37°C for 1 hour.
Step 3: 50 µL of serially diluted small molecule (working concentration: 10000 nM, 1:3 dilution) drugs were inoculated into the plate in a 37°C incubator for 8 hours.
Step 4: 10 µL of stimulants were added respectively, with final concentrations of 100 ng/mL for LPS, 1 µg/mL for R848, and 100 ng/mL for IL-1β.
Step 5: CBA assay. The concentrations of IL-6 and TNF-α in the cell culture supernatant were determined using Hu IL-6 CBA Flex Set A7 and Hu TNF- CBA Flex Set D9.
Step 6: Standard samples were prepared: 2500 pg/mL, 1250 pg/mL,...0. A 1:2 serial dilution was performed to obtain 10 concentrations.
Step 7: The mixed capture beads were resuspended in capture bead diluent (1:50), and cell culture supernatant (50 µL) was added, followed by incubation at room temperature for 10 minutes.
Step 8: The detection reagent prepared with detection diluent was added, and the mixture was incubated in the dark at room temperature for 3 hours. At the end of incubation, the samples were washed once with wash buffer and resuspended for detection.
The concentrations of IL-6 and TNFα were calculated using the standard curve method. Data presentation and IC50 calculation were performed using Prism 8.0.2.

[2] = Dog pharmacokinetics, oral gavage (Experiment 3); type: in vivo; settings: Beagle dogs, oral gavage 2.5 mg/kg, plasma
Procedure: Healthy Beagle dogs, male, weighing about 8-10 kg, 3 animals per group.
The animals were not fasted and had free access to water.
Venous blood (0.5-0.8 mL) was collected at 15 minutes, 30 minutes, 1 hour, 2 hours, 4 hours, 8 hours, and 24 hours after oral gavage administration, placed in K2EDTA tubes, and centrifuged at 4°C to separate plasma. The concentration of the compound in plasma was determined by liquid chromatography-tandem mass spectrometry.
The main pharmacokinetic parameters were calculated using WinNonlin. […] Table 8. Pharmacokinetic parameters of some compounds of the present disclosure administered orally to dogs

[3] = biological target: T1, IRAK4 (Mus musculus, UniProt Q8R4K2); test: In vivo degradation of IRAK4 in mouse spleen, IL-33 model (LC-MS); design: species or system C57BL/6J mice; settings: Example 22 at 50 mpk, comparable drug concentrations in the spleen, FIG. 2
T1 sequence (Q8R4K2 1-459): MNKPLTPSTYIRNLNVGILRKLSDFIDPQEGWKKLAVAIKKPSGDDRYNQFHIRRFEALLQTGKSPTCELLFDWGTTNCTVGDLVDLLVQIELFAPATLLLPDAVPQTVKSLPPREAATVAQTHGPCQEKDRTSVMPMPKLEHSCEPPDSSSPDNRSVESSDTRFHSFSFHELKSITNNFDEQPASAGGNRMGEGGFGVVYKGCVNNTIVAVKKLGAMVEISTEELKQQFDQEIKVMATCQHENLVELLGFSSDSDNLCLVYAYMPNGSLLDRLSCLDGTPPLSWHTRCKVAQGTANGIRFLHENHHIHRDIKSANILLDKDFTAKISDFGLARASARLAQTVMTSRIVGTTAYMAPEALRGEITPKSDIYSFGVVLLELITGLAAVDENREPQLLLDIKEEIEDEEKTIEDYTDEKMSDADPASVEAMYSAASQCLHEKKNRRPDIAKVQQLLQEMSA

[4] = mice, 8 hours after last administration
Procedure: Experimental animals: SPF-grade male C57BL/6J mice aged 6-8 weeks.
Preparation of compound: 10% DMSO + 50% PEG400 + 40% sterile water for injection. The compound was dissolved in DMSO, followed by the addition of PEG400 and sterile water for injection, and the solution was adjusted to clarity with 6N hydrochloric acid.
Compound administration and IL-33 inflammatory induction: The mice were randomly grouped according to body weight and orally administered with the compound at final doses of 15 mg/kg, 50 mg/kg, and 150 mg/kg, twice daily. At 4 hours after the last administration of the compound, the mice were intraperitoneally injected with 1 µg/100 µL PBS of IL-33 for inflammatory induction.
Termination, sample collection, and data: Plasma, peritoneal lavage fluid, and spleen were collected for subsequent sample index detection.
The experiment was terminated 8 hours after the last administration. The mice were anesthetized, and cardiac blood was collected. The blood samples were anticoagulated with EDTA-K2, centrifuged at 3500 rpm for 15 minutes, and the upper plasma was collected.

[5] = biological target: T2, IRAK4 (Homo sapiens, UniProt Q9NWZ3); type: cell-based; design: endogenous in cells; host or cells: OCI-LY3; settings: read-out: OCI-LY3 DC50; OCI-LY3 cells
T2 sequence (Q9NWZ3 1-460): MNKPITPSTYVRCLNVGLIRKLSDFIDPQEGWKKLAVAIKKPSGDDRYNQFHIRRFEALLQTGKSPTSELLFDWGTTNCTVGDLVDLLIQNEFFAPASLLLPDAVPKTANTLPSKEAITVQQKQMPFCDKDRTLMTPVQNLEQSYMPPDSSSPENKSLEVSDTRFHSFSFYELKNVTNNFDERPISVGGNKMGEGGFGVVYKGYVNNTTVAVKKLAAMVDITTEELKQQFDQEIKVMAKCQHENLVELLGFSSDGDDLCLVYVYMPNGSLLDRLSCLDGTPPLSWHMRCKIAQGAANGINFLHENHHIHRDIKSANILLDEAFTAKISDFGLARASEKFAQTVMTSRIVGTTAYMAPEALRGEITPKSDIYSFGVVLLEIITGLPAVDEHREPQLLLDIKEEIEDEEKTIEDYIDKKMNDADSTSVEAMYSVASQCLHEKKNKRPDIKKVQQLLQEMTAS

[6] = IL-1β 100 ng/mL, read-out: IC50, TNFα secretion induced by IL-1β
[7] = LPS 100 ng/mL, read-out: IC50, TNFα secretion induced by LPS
[8] = R848 1 µg/mL, read-out: IC50, TNFα secretion induced by R848

## Cn1c(=O)n(C2CCC(=O)NC2=O)c2cccc(C#CCOC34CCC(CN5CCC6(CC5)CC(n5cc(NC(=O)c7cnn8ccc(N9C[C@H]%10C[C@@H]9CO%10)nc78)c(C(F)F)n5)C6)(CC3)CC4)c21 (stereo partly shown) [Example 52]
[1]; [6]
  IC50: 13.9 nM
[1]; [7]
  IC50: 8.5 nM
[1]; [8]
  IC50: 21.5 nM
[2]
  AUC(0-t) at 24 h: 1160 ng·h/mL
  Cmax: 78 ng/mL
  MRT inf: 20.2 h
  half-life: 804 min

## Cn1c(=O)n(C2CCC(=O)NC2=O)c2cccc(C#CCCN3CCC4(CC3)CC(n3cc(NC(=O)c5cnn6ccc(N7C[C@H]8C[C@@H]7CO8)nc56)c(C(F)F)n3)C4)c21 (stereo partly shown) [Example 22]
[1]; [6]
  IC50: 0.16 nM
[1]; [7]
  IC50: 1.2 nM
[1]; [8]
  IC50: 1.4 nM
[2]
  AUC(0-t) at 24 h: 1190 ng·h/mL
  Cmax: 100 ng/mL
  MRT inf: 11.2 h
  half-life: 456 min
[3]
  degradation effect of IRAK4 in mouse spleen compared with KT-474 at 150 mpk: 2-3 times
[4]; PO 15 mpk twice daily
  C8hr Plasma: 54 ng/mL
  C8hr Spleen: 369 ng/mL
[4]; PO 50 mpk twice daily
  C8hr Plasma: 517 ng/mL
  C8hr Spleen: 6135 ng/mL
[4]; PO 150 mpk twice daily
  C8hr Plasma: 1392 ng/mL
  C8hr Spleen: 16257 ng/mL
[5]
  DC50: 1.3 nM
